According to ChEMBL document CHEMBL1128867, “Structure-based drug design of nonpeptidic P2 substituents for HIV-1 protease inhibitors” (Bioorg Med Chem Lett, 1995):
≈ marks a conversion by molar mass, not a printed value.

What was measured:
[1] = target: Human immunodeficiency virus type 1 protease (Human immunodeficiency virus 1, UniProt Q72874); experiment: Inhibitory activity HIV-1 protease enzyme
CCRF-CEM = experiment: Inhibitory activity against CEM cells; type: functional, cell-based; details: Homo sapiens
[2] = Oral availability was tested for plasma levels at a dose of 40 mg/kg, after 6 hr of in fed fisher rats.; type: ADME, organism-based; parameters: dose 40 mg/kg; details: Fischer, rat, read-out: Oral availability
[3] = target: Human immunodeficiency virus type 1 protease (Human immunodeficiency virus 1) (UniProt Q72874); experiment: Concentration required for the inhibition against HIV-protease enzyme at a dose of 40 mg/kg in fed fisher rats; type: organism-based; parameters: dose 40 mg/kg

SMILES | Ki [1] [µM] | IC50 (CCRF-CEM) [µg/mL] | bioavailability [2] [%] | IC90 [3] [µg/mL]
Cc1c(O)cccc1C(=O)N[C@@H](CSc1ccc2ccccc2c1)[C@H](O)Cc1ccccc1C(=O)NC(C)(C)C | 0.003 | 0.97 (≈ 1.74 µM) | – | –
Cc1ccc(O)cc1C(=O)N[C@@H](CSc1ccc2ccccc2c1)[C@H](O)Cc1ccccc1C(=O)NC(C)(C)C | 0.5 | – | – | –
CC(C)(C)NC(=O)c1ccccc1C[C@@H](O)[C@H](CSc1ccc2ccccc2c1)NC(=O)c1ccnc2ccccc12 | 0.265 | 5.6 (≈ 9.69 µM) | – | –
Cc1c(O)cccc1C(=O)N[C@@H](Cc1ccccc1)[C@H](O)CN1C[C@H]2CCCC[C@H]2C[C@H]1C(=O)NC(C)(C)C | 0.021 | 0.01 (≈ 0.0187 µM) | 44 | 0.03 (≈ 0.056 µM)
CC(C)(C)NC(=O)c1ccccc1C[C@@H](O)[C@H](CSc1ccc2ccccc2c1)NC(=O)c1cccc2[nH]ccc12 | 0.164 | 6.6 (≈ 11.7 µM) | – | –
Cc1c(C(=O)N[C@@H](CSc2ccc3ccccc3c2)[C@H](O)Cc2ccccc2C(=O)NC(C)(C)C)cccc1[N+](=O)[O-] | 0.54 | > 50 | – | –
CC(C)(C)NC(=O)c1ccccc1C[C@@H](O)[C@H](CSc1ccc2ccccc2c1)NC(=O)c1cccc(N)c1Cl | 0.016 | 1.5 (≈ 2.6 µM) | – | –
Cc1c(N)cccc1C(=O)N[C@@H](CSc1ccc2ccccc2c1)[C@H](O)Cc1ccccc1C(=O)NC(C)(C)C | 0.049 | 5 (≈ 9 µM) | – | –
CC(C)(C)NC(=O)c1ccccc1C[C@@H](O)[C@H](CSc1ccc2ccccc2c1)NC(=O)c1cccc(N)c1Br | 0.033 | 1.6 (≈ 2.58 µM) | – | –
CC(C)(C)NC(=O)c1ccccc1C[C@@H](O)[C@H](CSc1ccc2ccccc2c1)NC(=O)c1cccc2c1CCNC2 | 0.18 | > 50 | – | –
CC(C)(C)NC(=O)c1ccccc1C[C@@H](O)[C@H](CSc1ccc2ccccc2c1)NC(=O)c1cccc2c1CCCN2 | 0.024 | 1.9 (≈ 3.27 µM) | – | –
Cc1c(N)cc(N)cc1C(=O)N[C@@H](CSc1ccc2ccccc2c1)[C@H](O)Cc1ccccc1C(=O)NC(C)(C)C | 0.005 | 0.46 (≈ 0.806 µM) | – | –
Cc1ccc(N)cc1C(=O)N[C@@H](CSc1ccc2ccccc2c1)[C@H](O)Cc1ccccc1C(=O)NC(C)(C)C | 0.017 | 1.3 (≈ 2.34 µM) | – | –
CC(C)(C)NC(=O)c1ccccc1C[C@@H](O)[C@H](CSc1ccc2ccccc2c1)NC(=O)c1cccc2c1CCN2 | 0.166 | > 50 | – | –
CC(C)(C)NC(=O)c1ccccc1C[C@@H](O)[C@H](CSc1ccc2ccccc2c1)NC(=O)c1cccc(O)c1Cl | 0.015 | – | – | –
CC(C)(C)NC(=O)c1ccccc1C[C@@H](O)[C@H](CSc1ccc2ccccc2c1)NC(=O)c1cccc2cnccc12 | 0.8 | 16 (≈ 27.7 µM) | – | –
CC(C)(C)NC(=O)c1ccccc1C[C@@H](O)[C@H](CSc1ccc2ccccc2c1)NC(=O)c1cccc2ncccc12 | 0.113 | 5.7 (≈ 9.87 µM) | – | –
